Where two headings read alike, the source gives them in different places.
Key:
formation of PGE2 = assay: Inhibition of PGE2 formation in rabbit joint chondrocytes stimulated by IL-1β (RIA); type: cell-based; conditions: IL-1β 1 ng/ml, 48 hours
Protocol: (§1) a) The activity in inhibiting the formation of NO, measured as NO2^− (nitrites), PGE2, and neutral protease, was investigated in vitro on culture broths of rabbit joint chondrocytes stimulated by cytokine IL-1β (1 ng/ml) for 48 hours. For the preparation of the chondrocytes, the method described by Berenbaum et al [FEBS Letters 340, 51-55 (1994)] was followed. Briefly, fragments of cartilage removed under sterile conditions from the heads of rabbit shoulder, hip and knee joints were chopped finely and digested at 37° C. by hyaluronidase, trypsin and collagenase solutions, giving rise, after filtration on sterile gauze and centrifuging at 600×g and suitable dilution with 10% DMEM-FCS, to a concentration of approximately 1×10^5 cells per well. The cells were kept in these conditions until confluence (about 15 days), the broth being changed every 3 days. At this point, the products under test, dissolved in the medium, were added to each test sample and, after 20 minutes, 350 μl IL-1β was added in order to have a final concentration of 1 ng/ml. The duration of the stimulation was 48 hours at 37° C. (incubation air-CO2 7%). Measurement of the nitrites, as described by Green et al. [Anal. Biochem. 126, 131-138 (1982)], and of the PGE2s by RIA measurement, was then performed on the cell supernatant fluid. The measurement of the neutral proteases was performed in the cell supernatant fluid containing the p-aminophenyl mercury acetate (APMA) activator with the use of azocoll as the substrate and with incubation at 37° C. for 17 h as described by Chavira et al. [Anal. Biochem. 136, 446-450 (1984)]. In order to evaluate the direct inhibitory effect of the compounds under test on the hydrolytic activity of the cell supernatant fluid, they were added to the supernatant fluid containing the proteases induced by IL-1β and already activated by AMPA.
(§2) The results obtained are shown in Table 3, in which the IC50, that is, the concentration (micromolar) of antagonist which can inhibit the formation of nitrites, PGE2s, and neutral proteases, respectively, by 50% relative to the control group, that is, to the cells stimulated with IL-1β but without the addition of antagonists, is given for some of the compounds of the invention already given by way of example in Table 2.

[1] = system: neutral proteases (metalloproteases); assay: Inhibition of neutral proteases (metalloproteases) in supernatant of IL-1β-stimulated rabbit joint chondrocytes, azocoll substrate; type: biochemical; conditions: IL-1β 1 ng/ml, 48 hours, APMA-activated supernatant, read-out: MP (metalloproteases) IC50
Protocol: as §1, §2

[2] = system: formation of NO, measured as NO2− (nitrites); assay: Inhibition of NO (nitrite) formation in rabbit joint chondrocytes stimulated by IL-1β; type: cell-based; conditions: IL-1β 1 ng/ml, 48 hours, NO determined as nitrites
Protocol: as §1, §2

[3] = system: extravasation in the ears of mice; assay: Extravasation (Evans Blu) induced by phlogogenic agents in the ears of mice; type: in vivo
Protocol: b) Some of the compounds of the invention, such as compounds I-4, I-11 and I-31, were evaluated in vivo in a series of experimental extravasation models in which 5 μl of the preselected phlogogenic agent dissolved in physiological solution was injected intradermally into the ears of mice as described by Erdo et al., with slight modifications [Agents and Actions 39, 137-142 (1993)].
The products under test were administered orally 1 hour before the challenge and, 30 minutes before the challenge, the dye Evans Blu was injected intravenously in a dose of 100 mg/kg. The animals were killed at a time predetermined according to the test, 30 min.—2 hours after the challenge. The extravasation was evaluated by determining the quantity of dye present in the ear, extracted after homogenisation of the tissue in 2 ml of formamide and incubation at 50° C. for 2 hours. After centrifuging, the amount of dye was determined by measuring the absorption at 620 nm. The maximum % effect (% MPE) was calculated by the following formula:
[formula] in which EV is the mean absorption observed in the group of animals treated solely with the phlogogenic agent, ED is the group treated with the phlogogenic agent and the drug, and EB is the base value, that is, the value for the animals injected with physiological solution alone.
The phlogogenic agents used were:
Arachidonic acid (dissolved in EtOH); (1 mg/mouse; killed+30 min); histamine (3 nmoli/mouse; killed+30 min); PAF (30 pmoli/mouse; killed+60 min); Zymosan (10 μg/mouse; killed+120 min); bradykinin (0.6 nmoli/mouse; killed+30 min).

[4] = system: colitis induced by TNBS in rats; assay: Colitis induced by TNBS in rats; type: in vivo, rat; conditions: for Weight of the colon: 48 hours after TNBS; for Weight of the colon / Myeloperoxidase activity / iNOS activity / Macroscopic damage (MDS): mean ± SD; for Myeloperoxidase activity / iNOS activity: colon tissue; for Macroscopic damage (MDS): score 0-10
From the text: The combined capability of some of the compounds of the invention to inhibit both iNOS and the synthesis of TNFα has led to their activity being checked in an experimental model of colitis caused by a chemical hapten, trinitrobenzene-sulphonic acid (TNBS), which can bind to the tissue proteins and stimulate cell-mediated immunity. The intrarectal administration of TNBS in association with ethanol causes acute inflammation characterised by extensive ulceration and necrosis.
A distal colitis was therefore induced in the rat by intrarectal instillation of TNBS (40 mg/kg) dissolved in 50% ethanol (0.5 ml/rat). The drugs were administered orally twice a day on days −2; −1; 0; +1 and the animals were killed 48 hours after the administration of TNBS.
The parameters examined were: total weight of the colon (g), macroscopic tissue damage “score”, measurement of the tissue myeloperoxidase (MPO) activity, which is a marker of the infiltration of the neutrophiles, and measurement of the iNOS activity (pmoles/g tissue/min.).
The macroscopic score (MDS) was taken on about 10 cm of colon in accordance with the following arbitrary scale:
The tissue MPO measurement was performed according to Velgara et al., JPET 1994. The measurement of the tissue nitrites was performed by applying the method described above for the chondrocytes to the supernatant fluid of the tissue homogenate.
Compound I-4, administered in doses of 5, 10 and 20 mg/kg, and compound I-11 were examined, by administering them orally, in comparison with sulphasalazine (250 mg/kg) and 5-aminosalicylic acid (5-ASA) (100 mg/kg), 2 drugs which are widely used in the treatment of ulcerative colitis.

[5] = Oryctolagus cuniculus, Chondrocyte
[6] = 250 mg/kg, non-statistically significant
[7] = OS, mouse ear, PAF, read-out: ED50, extravasation induced by PAF

Row | Structure (SMILES) | IC50 (formation of PGE2) [µM] | IC50 [1] [µM] | IC50 [2] [µM] | further results
1 | CCC(=N)Nc1ccc(NC(=S)NC2CCCCC2)cc1 [Compound I-12] | 13.3 | 100 |  | 
2 | N=C(Nc1ccc(NC(=S)NC2CCCCC2)cc1)N[N+](=O)[O-] [Compound I-31] | 30 | 6.6 | 46.6 | ED50, extravasation induced by PAF ([3]; OS, mouse ear, PAF): 10.8 mg/kg; ED50, extravasation induced by Zymosan ([3]; OS, mouse ear, Zymosan): 10.5 mg/kg; ED50, extravasation induced by AA (arachidonic acid) ([3]; OS, mouse ear, arachidonic acid): 30.5 mg/kg
3 | CCCNC(=S)Nc1ccc(NC(C)=N)cc1 [Compound I-2] |  | 30 |  | IC50 (formation of PGE2; [5]): > 300 µM; melting point: 188.1 to 189.1 °C; IC50 [2, 5]: > 300 µM
4 | CC(=N)Nc1ccc(NC(=S)NCCc2ccc(F)cc2)cc1 [Compound I-16] | 26.6 | 6.6 | 13.3 | 
5 | CC(=N)Nc1ccc(NC(=O)Cc2c[nH]c3ccccc23)cc1 [Compound I-27] |  |  | 10 | 
6 | CCCCCC(=O)Nc1ccc(NC(C)=N)cc1 [Compound I-23] |  |  | 100 | 
7 | CCCCNC(=S)Nc1ccc(NC(C)=N)cc1 [Compound I-3] | 250 | 13.3 | 190 | 
8 | CNC(=S)Nc1ccc(NC(C)=N)cc1 [Compound I-1] |  | 30 |  | 
9 | CC(=N)Nc1ccc(NC(=S)NCc2ccccn2)cc1 [Compound I-19] |  | 13.3 |  | 
10 | CC(=N)Nc1ccc(NC(=S)NC2CCCCC2)cc1 [Compound I-11] | 16.6 | 30 | 110 | activity in TNBS colitis (in words) ([4]; 20 mg/kg): active; Weight of the colon ([4]; 20 mg/kg orally twice a day): 2.2 ± 0.3 g; Myeloperoxidase activity ([4]; 20 mg/kg orally twice a day): 6.5 ± 1.8 UMPO/g/min; iNOS activity ([4]; 20 mg/kg orally twice a day): 90.6 ± 45.6 pmol/g/min; Macroscopic damage (MDS) ([4]; 20 mg/kg orally twice a day): 4.3 ± 0.9(*)
11 | CCCCCCNC(=S)Nc1ccc(NC(C)=N)cc1 [Compound I-5] | 10 | 3.3 | 10 | 
12 | O=C(O)c1cc(/N=N/c2ccc(S(=O)(=O)Nc3ccccn3)cc2)ccc1O [Sulphasalazine, sulphasalazine, reference compound] |  |  |  | Weight of the colon ([4]; 250 mg/kg orally twice a day): 2.5 ± 0.3 g; Myeloperoxidase activity ([4]; 250 mg/kg orally twice a day): 7.5 ± 5.5 UMPO/g/min; iNOS activity ([4]; 250 mg/kg orally twice a day): 100.8 ± 86.8 pmol/g/min; Macroscopic damage (MDS) ([4]; 250 mg/kg orally twice a day): 6.0 ± 2.9; effect on iNOS activity [4, 6]: about 50%; effect on macroscopic damage [4, 6]: about 20%
13 | CC(=N)Nc1ccc(NC(=O)C23CC4CC(CC(C4)C2)C3)cc1 [Compound I-25] | 16.6 |  |  | 
14 | CC(=N)Nc1ccc(NC(=S)NCCc2ccc(Cl)cc2)cc1 [Compound I-17] | 10 | 10 | 10 | 
15 | CC(=N)Nc1ccc(NC(=S)NCCc2ccccc2)cc1 [Compound I-14] | 33 | 6.6 | 100 | 
16 | CC(=N)Nc1ccc(NC(=O)NC2CCCCC2)cc1 [Compound I-29] | 6.6 | 25 | 25 | 
17 | CC(=N)Nc1ccc(NC(=O)c2cc3ccccc3n2C)cc1 [Compound I-28] | 100 |  |  | 
18 | CC(=N)Nc1ccc(NC(=O)C2CCCCC2)cc1 [Compound I-24] | 33.3 |  | 33.3 | 
19 | CC(=N)Nc1ccc(NC(=S)NCCc2c(F)cccc2F)cc1 [Compound I-18] | 6.6 | 6.6 |  | 
20 | CC(=N)Nc1ccc(NC(=S)Nc2ncc(C)s2)cc1 [Compound I-21] |  |  | 66.6 | 
21 | Nc1ccc(O)c(C(=O)O)c1 [Compound 5-ASA, 5-aminosalicylic acid, reference compound] |  |  |  | activity on all of the parameters (in words) ([4]; 100 mg/kg): inactive; Weight of the colon ([4]; 100 mg/kg orally twice a day): 2.4 ± 0.4 g; Myeloperoxidase activity ([4]; 100 mg/kg orally twice a day): 7.9 ± 2.3 UMPO/g/min; iNOS activity ([4]; 100 mg/kg orally twice a day): 167.3 ± 106.5 pmol/g/min; Macroscopic damage (MDS) ([4]; 100 mg/kg orally twice a day): 6.9 ± 1.1
22 | CCCCCCCNC(=S)Nc1ccc(NC(C)=N)cc1 [Compound I-6] |  | 20 |  | IC50 (formation of PGE2; [5]): 20 µM; melting point: 177.8 to 178.4 °C; IC50 [2, 5]: 30 µM
23 | N=C(N)Nc1ccc(NC(=S)NC2CCCCC2)cc1 [Compound I-30, 1-guanidinophenyl-4-cyclohexyl Thiourea] | 10 | 13.3 | 6.6 | 
24 | CN1C(C(=O)Nc2ccccn2)=C(O)c2ccccc2S1(=O)=O [Piroxicam, reference compound] |  |  |  | ED50 [3, 7]: 21.2 mg/kg; ED50 ([3]; OS, mouse ear, Zymosan, read-out: ED50, extravasation induced by Zymosan): 6.1 mg/kg
25 | CS(=O)(=O)Nc1ccc([N+](=O)[O-])cc1Oc1ccccc1 [Nimesulide, reference compound] |  |  |  | ED50 [3, 7]: > 40 mg/kg; ED50 ([3]; OS, mouse ear, arachidonic acid, read-out: ED50, extravasation induced by AA (arachidonic acid)): 41 mg/kg; times less active than Compound I-4 ([3]; antagonising AA): 2 times
26 | CC(=N)Nc1ccc(NC(=S)NCCc2ccccn2)cc1 [Compound I-20] | 16.6 | 6.6 | 16.6 | 
27 | CC(=N)Nc1ccc(NC(=S)NCCC(C)C)cc1 [Compound I-7] | 6.6 | 13.3 | 3.3 | 
28 | CC(=N)Nc1ccc(NC(=S)NCCCc2ccccc2)cc1 [Compound I-15] | 16.6 | 6.6 | 33 | 
29 | CC(=N)Nc1ccc(NC(=S)Nc2ccccc2)cc1 [Compound I-13] | 10 | 6.6 | 100 | 
30 | CC(=N)Nc1cccc(NC(=S)NC2CCCCC2)c1 [Compound I-32] | 300 |  |  | 
